Laboratory results as given in DBAASP.
Converted amounts (≈) assume the structure as drawn. One block for each compound: values may come before it.

Assays:
Test in all cases: ≥ marks a high value that may be exact or a test limit, other limits are often not marked, values filed in µg/mL are converted to µM
[1] = tested on: Enterococcus faecalis ATCC 29212
[2] = tested on: Enterococcus faecium
[3] = tested on: Staphylococcus aureus ATCC 25923
[4] = tested on: Staphylococcus aureus K35
[5] = tested on: Staphylococcus aureus K52
[6] = tested on: Candida albicans ATCC 90028
[7] = tested on: Candida krusei ATCC 6258
[8] = tested on: Candida parapsilosis ATCC 22019
[9] = tested on: Cryptococcus neoformans ATCC 90012
[10] = tested on: Escherichia coli ATCC 25922
[11] = tested on: Pseudomonas aeruginosa ATCC 27853
[12] = tested on: Erwinia amylovora PMV 6076
[13] = tested on: Pseudomonas syringae pv. syringae EPS 94
[14] = tested on: Xanthomonas campestris pv. Vesicatoria 2133-2
[15] = tested on: Acinetobacter baumannii Ab1408
[16] = tested on: Acinetobacter baumannii Ab5753
[17] = tested on: Acinetobacter baumannii Ab5755
[18] = tested on: Acinetobacter baumannii NM109
[19] = tested on: Acinetobacter baumannii NM124
[20] = tested on: Acinetobacter baumannii NM35
[21] = tested on: Acinetobacter baumannii NM75
[22] = tested on: Acinetobacter baumannii NM8
[23] = tested on: Acinetobacter baumannii
[24] = tested on: Escherichia coli ATCC 25726
[25] = tested on: Escherichia coli Ec513
[26] = tested on: Pseudomonas aeruginosa Pa1409
[27] = tested on: Pseudomonas aeruginosa Pa4216
[28] = tested on: Staphylococcus aureus Sa1390
[29] = tested on: Botrytis cinerea 101
[30] = tested on: Candida albicans ATCC 10231
[31] = tested on: Corynebacterium glutamicum ATCC 13032
[32] = tested on: Penicillium roqueforti
[33] = tested on: Saccharomyces cerevisiae
[34] = tested on: Staphylococcus aureus ATCC 9144
[35] = tested on: Vibrio anguillarum FT1801
[36] = tested on: Bacillus subtilis KCTC 1918
[37] = tested on: Candida albicans KCTC 7270
[38] = tested on: Escherichia coli KCTC 1682
[39] = tested on: Pseudomonas aeruginosa KCTC 1637
[40] = tested on: Saccharomyces cerevisiae KCTC 7296
[41] = tested on: Salmonella typhimurium KCTC 1926
[42] = tested on: Staphylococcus aureus KCTC 1621
[43] = tested on: Staphylococcus epidermidis KCTC 1917
[44] = tested on: Trichosporon beigelii KCTC 7707

Compound: CC(C)C[C@H](NC(=O)[C@H](C)NC(=O)CNC(=O)[C@H](CO)NC(=O)[C@H](CC(C)C)NC(=O)[C@@H](NC(=O)[C@H](CCCN=C(N)N)NC(=O)CNC(=O)[C@H](C)NC(=O)[C@H](CC(C)C)NC(=O)[C@@H]1CCCN1C(=O)[C@H](CC(C)C)NC(=O)[C@@H](N)Cc1ccccc1)C(C)C)C(N)=O [FLPLAGRVLSGAL]
MIC [1]: > 168 µM | MIC [2]: ≥ 99.8 µM | MIC [3]: > 168 µM | MIC [4]: ≥ 99.8 µM | MIC [5]: ≥ 99.8 µM

Compound: CC[C@H](C)[C@H](NC(=O)[C@H](Cc1ccccc1)NC(=O)[C@H](CC(N)=O)NC(=O)[C@H](CCCCN)NC(=O)[C@H](C)NC(=O)[C@@H](NC(=O)[C@H](CC(N)=O)NC(=O)[C@H](Cc1ccccc1)NC(=O)[C@H](C)NC(=O)[C@H](C)NC(=O)[C@H](CCCCN)NC(=O)CNC(=O)[C@H](CCCCN)NC(=O)[C@H](CCCCN)NC(=O)[C@H](CCCCN)NC(=O)[C@H](C)NC(=O)[C@@H](NC(=O)[C@H](CC(=O)O)NC(=O)[C@H](CC(C)C)NC(=O)[C@H](Cc1c[nH]c2ccccc12)NC(=O)CN)C(C)C)C(C)C)C(N)=O [GWLDVAKKKGKAAFNVAKNFI]
MIC [6]: 16 µM (≈ 36.9 µg/mL) | MIC [7]: 31 µM (≈ 71.4 µg/mL) | MIC [8]: 31 µM (≈ 71.4 µg/mL) | MIC [9]: 31 µM (≈ 71.4 µg/mL) | MIC [10]: 8 µM (≈ 18.4 µg/mL) | MIC [11]: 32 µM (≈ 73.8 µg/mL)

Compound: CC[C@H](C)[C@H](NC(=O)CN)C(=O)N[C@@H](Cc1c[nH]c2ccccc12)C(=O)N[C@@H](CCCCN)C(=O)N[C@H](C(=O)N[C@H](C(=O)N[C@@H](CCCCN)C(=O)N[C@@H](CO)C(=O)N[C@@H](CCSC)C(=O)NCC(=O)N[C@@H](CCCCN)C(=O)N[C@H](C(=O)N[C@@H](Cc1ccccc1)C(=O)N[C@@H](C)C(=O)NCC(=O)N[C@@H](CCCCN)C(=O)N[C@H](C(=O)N[C@@H](CC(C)C)C(=O)N[C@@H](CCC(N)=O)C(=O)N[C@@H](CC(N)=O)C(=O)N[C@@H](CC(C)C)C(N)=O)[C@@H](C)CC)C(C)C)[C@@H](C)CC)[C@@H](C)O [GIWKTIKSMGKVFAGKILQNL]
MIC [15]: 6.86 µM (≈ 16 µg/mL) | MIC [16]: 3.43 µM (≈ 8 µg/mL) | MIC [17]: 1.71 µM (≈ 4 µg/mL) | MIC [18]: 1.5 µM (≈ 3.5 µg/mL) | MIC [19]: 1.5 µM (≈ 3.5 µg/mL) | MIC [20]: 3 µM (≈ 7 µg/mL) | MIC [21]: 3 µM (≈ 7 µg/mL) | MIC [22]: 3 µM (≈ 7 µg/mL) | MIC [23]: 6.25 µM (≈ 14.6 µg/mL) | MIC [6]: 6 µM (≈ 14 µg/mL) | MIC [24]: 6.25 µM (≈ 14.6 µg/mL) | MIC [25]: 3.43 µM (≈ 8 µg/mL) | MIC [26]: 13.7 µM (≈ 32 µg/mL) | MIC [27]: 13.7 µM (≈ 32 µg/mL) | MIC [3]: 12.5 µM (≈ 29.1 µg/mL) | MIC [28]: 6.86 µM (≈ 16 µg/mL)

Compound: CC(C)C[C@H](NC(=O)[C@H](C)NC(=O)[C@H](Cc1cnc[nH]1)NC(=O)[C@H](C)NC(=O)[C@H](C)NC(=O)[C@H](C)NC(=O)[C@H](CS)NC(=O)[C@H](C)NC(=O)CNC(=O)[C@H](CCCN=C(N)N)NC(=O)[C@H](CC(C)C)NC(=O)[C@@H](N)CC(=O)O)C(=O)O [DLRGACAAAHAL]
MIC [29]: ≥ 100 µM | MIC [30]: > 100 µM | MIC [31]: ≥ 100 µM | MIC [10]: > 100 µM | MIC [32]: ≥ 100 µM | MIC [33]: ≥ 100 µM | MIC [34]: ≥ 100 µM | MIC [35]: ≥ 100 µM

Other lines, results leading:

MIC [12]: 3.54 µM (≈ 6.74 µg/mL) | MIC [13]: 3.54 µM (≈ 6.74 µg/mL) | MIC [14]: 1.77 µM (≈ 3.37 µg/mL)
Compound: CC[C@H](C)[C@H](NC(=O)[C@H](CCCCN)NC(=O)[C@H](CCCCN)NC(=O)[C@H](Cc1ccccc1)NC(=O)[C@H](CC(C)C)NC(=O)[C@H](CCCCN)NC(=O)[C@@H](N)CCCCN)C(=O)N[C@@H](CC(C)C)C(=O)N[C@@H](CCCCN)C(=O)N[C@@H](Cc1ccc(O)cc1)C(=O)N[C@@H](CC(C)C)C(=O)N[C@@H](CCCCN)C(=O)N[C@@H](CC(=O)O)C(=O)N[C@@H](CCC(=O)O)C(=O)N[C@@H](CC(C)C)C(=O)O [KKLFKKILKYLKDEL]

MIC [36]: 1.56 µM (≈ 2.69 µg/mL) | MIC [37]: 17.7 µM (≈ 30.4 µg/mL) | MIC [38]: 3.12 µM (≈ 5.38 µg/mL) | MIC [39]: 1.56 µM (≈ 2.69 µg/mL) | MIC [40]: 6.25 µM (≈ 10.8 µg/mL) | MIC [41]: 0.78 µM (≈ 1.34 µg/mL) | MIC [42]: 1.56 µM (≈ 2.69 µg/mL) | MIC [43]: 3.12 µM (≈ 5.38 µg/mL) | MIC [44]: 1.56 µM (≈ 2.69 µg/mL)
Compound: CC[C@H](C)[C@H](NC(=O)[C@H](CCCCN)NC(=O)[C@H](CO)NC(=O)[C@H](Cc1ccccc1)NC(=O)[C@H](CC(C)C)NC(=O)[C@H](CCCCN)NC(=O)[C@H](CCC(=O)O)NC(=O)[C@H](CC(C)C)NC(=O)[C@H](CCCN=C(N)N)NC(=O)[C@H](CCCCN)NC(=O)[C@H](Cc1ccccc1)NC(=O)[C@H](Cc1c[nH]c2ccccc12)NC(=O)[C@@H](N)CCCCN)C(N)=O [KWFKRLEKLFSKI]
